The source of these data is US11339130B1 (Blade Therapeutics, Inc., priority 2016, dated 2022).

Assay [1] concerns the target T1, Human Calpain 2/NS1 (Homo sapiens, UniProt P17655).
T1 sequence (P17655 1-700): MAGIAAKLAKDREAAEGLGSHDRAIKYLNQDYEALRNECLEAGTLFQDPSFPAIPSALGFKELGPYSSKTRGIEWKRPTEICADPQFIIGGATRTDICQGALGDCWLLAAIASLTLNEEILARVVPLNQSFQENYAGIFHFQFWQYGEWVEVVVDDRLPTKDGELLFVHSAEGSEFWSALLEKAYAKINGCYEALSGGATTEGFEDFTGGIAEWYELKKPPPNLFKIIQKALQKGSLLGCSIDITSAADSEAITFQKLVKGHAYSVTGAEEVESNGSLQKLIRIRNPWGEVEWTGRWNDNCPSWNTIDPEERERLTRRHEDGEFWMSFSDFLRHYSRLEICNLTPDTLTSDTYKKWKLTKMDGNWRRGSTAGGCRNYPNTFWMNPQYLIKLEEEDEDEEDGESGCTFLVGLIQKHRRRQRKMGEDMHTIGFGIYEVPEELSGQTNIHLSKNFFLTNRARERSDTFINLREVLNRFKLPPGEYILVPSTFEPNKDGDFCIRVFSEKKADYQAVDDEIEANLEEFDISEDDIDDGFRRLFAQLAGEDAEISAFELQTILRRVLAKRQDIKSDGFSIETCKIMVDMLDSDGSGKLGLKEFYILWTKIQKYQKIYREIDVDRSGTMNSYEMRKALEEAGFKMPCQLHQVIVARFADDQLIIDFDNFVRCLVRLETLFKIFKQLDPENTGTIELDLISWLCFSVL
T1 sequence (P04632 1-268 partner): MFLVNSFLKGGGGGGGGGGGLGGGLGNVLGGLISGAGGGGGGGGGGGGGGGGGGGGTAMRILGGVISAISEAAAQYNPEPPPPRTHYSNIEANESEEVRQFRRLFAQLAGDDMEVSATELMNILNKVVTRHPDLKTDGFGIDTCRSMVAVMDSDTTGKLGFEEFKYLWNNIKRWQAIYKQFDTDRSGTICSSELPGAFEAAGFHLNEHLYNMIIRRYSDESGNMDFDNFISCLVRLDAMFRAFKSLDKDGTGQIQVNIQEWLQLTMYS
The experiment in a line: Calpain inhibition continuous fluorescence (FRET) assay, Human Calpain 2/NS1. Format: biochemical. The settings on record: read-out: Human Calpain 2/NS1 IC50. An outline of the steps: (§1)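 Fluorescence increase from the cleaved 5-FAM/QXL 520 substrate, read at 490/520 nm, gave activity. Calcium was supplied with the substrate to activate the enzyme in situ after a 25C enzyme-inhibitor preincubation, and IC50s were fit from initial slopes.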

The test system of assay [2] is Calpain activity in SH-SY5Y cells (SBDP-150). The experiment in a line: SH-SY5Y Spectrin western blot assay (SBDP-150 breakdown product, A23187-induced). Type of assay: cell-based. The settings on record: Homo sapiens; SH-SY5Y cells, A23187-induced SBDP-150, western blot; read-out: SH-SY5Y Spectrin IC50. For orientation: In western blotting, separated proteins are transferred to a membrane and probed.

The target in assay [3] is T2, Human Calpain 9/NS1 (Homo sapiens, UniProt O14815).
T2 sequence (O14815 1-690): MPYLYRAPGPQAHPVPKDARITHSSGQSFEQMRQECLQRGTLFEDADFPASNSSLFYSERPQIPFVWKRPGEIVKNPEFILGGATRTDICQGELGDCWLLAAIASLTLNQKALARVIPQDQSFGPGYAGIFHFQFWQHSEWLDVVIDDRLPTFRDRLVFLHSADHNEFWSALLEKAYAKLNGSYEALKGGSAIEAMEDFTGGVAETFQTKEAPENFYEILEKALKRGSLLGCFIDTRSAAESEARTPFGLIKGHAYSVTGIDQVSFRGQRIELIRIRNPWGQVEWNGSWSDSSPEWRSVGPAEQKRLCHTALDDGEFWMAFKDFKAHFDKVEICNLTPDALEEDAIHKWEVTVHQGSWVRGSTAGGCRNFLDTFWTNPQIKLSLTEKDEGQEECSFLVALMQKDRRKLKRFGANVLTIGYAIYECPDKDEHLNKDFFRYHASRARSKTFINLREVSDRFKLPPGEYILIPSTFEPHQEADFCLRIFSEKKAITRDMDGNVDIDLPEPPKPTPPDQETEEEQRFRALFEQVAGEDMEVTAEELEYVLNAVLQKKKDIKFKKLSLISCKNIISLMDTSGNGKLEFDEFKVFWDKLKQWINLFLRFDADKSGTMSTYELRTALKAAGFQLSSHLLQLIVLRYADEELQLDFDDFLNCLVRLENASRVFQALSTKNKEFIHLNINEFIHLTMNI
T2 sequence (P04632 1-268 partner): T1 sequence (P04632 1-268 partner)
The experiment in a line: Calpain inhibition continuous fluorescence (FRET) assay, Human Calpain 9/NS1. Format: biochemical. As to conditions: read-out: Human Calpain 9/NS1 IC50. A digest of the protocol: as §1

The target in assay [4] is T3, Human Calpain 1/NS1 (Homo sapiens, UniProt P07384).
T3 sequence (P07384 1-714): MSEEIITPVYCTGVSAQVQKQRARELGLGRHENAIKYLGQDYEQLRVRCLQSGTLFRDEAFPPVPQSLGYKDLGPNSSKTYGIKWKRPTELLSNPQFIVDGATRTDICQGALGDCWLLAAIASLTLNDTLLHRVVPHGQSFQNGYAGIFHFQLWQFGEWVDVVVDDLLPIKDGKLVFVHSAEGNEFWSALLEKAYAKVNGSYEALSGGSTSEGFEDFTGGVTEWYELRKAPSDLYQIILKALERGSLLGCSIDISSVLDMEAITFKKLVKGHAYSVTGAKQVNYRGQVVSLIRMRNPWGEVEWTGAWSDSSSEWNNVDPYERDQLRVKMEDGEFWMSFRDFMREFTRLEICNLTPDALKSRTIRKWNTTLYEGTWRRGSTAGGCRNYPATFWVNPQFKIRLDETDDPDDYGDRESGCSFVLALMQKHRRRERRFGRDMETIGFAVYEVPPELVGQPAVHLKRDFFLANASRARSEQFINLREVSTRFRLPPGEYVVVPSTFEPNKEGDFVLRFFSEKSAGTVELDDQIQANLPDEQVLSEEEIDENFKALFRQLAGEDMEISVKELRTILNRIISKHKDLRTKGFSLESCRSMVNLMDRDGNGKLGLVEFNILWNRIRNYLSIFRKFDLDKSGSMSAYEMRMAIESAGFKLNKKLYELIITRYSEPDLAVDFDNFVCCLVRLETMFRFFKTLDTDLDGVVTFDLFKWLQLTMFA
T3 sequence (P04632 1-268 partner): T1 sequence (P04632 1-268 partner)
The experiment in a line: Calpain inhibition continuous fluorescence (FRET) assay, Human Calpain 1/NS1. Format: biochemical. The settings on record: read-out: Human Calpain 1/NS1 IC50. An outline of the steps:
as §1

Assay [5] has as its system Calpain activity in SH-SY5Y cells. The experiment in a line: SH-SY5Y + AMC fluorescence assay (Suc-LLVY-AMC substrate). Format: cell-based. The settings on record: read-out: SH-SY5Y + AMC IC50.

Bounds are passed on as bounds.

Regarding `Cc1cc(C(=O)N[C@@H](Cc2ccccc2)C(=O)CF)n(-c2ccccc2)n1` [Compound 479, (S)—N-(4-fluoro-3-oxo-1-phenylbutan-2-yl)-3-methyl-1-phenyl-1H-pyrazole-5-carboxamide], the IC50 in assay [1] was less than 3 µM; in assay [2] it was 10 to 25 µM; in assay [3], less than 3 µM; in assay [4], less than 3 µM; in assay [5], more than 25 µM.
Take `Cn1cc(C(=O)NC(Cc2ccccc2)C(=O)C(N)=O)c(-c2cccc(F)c2F)n1` (centres unmarked) [Compound 480, N-(4-amino-3,4-dioxo-1-phenylbutan-2-yl)-3-(2,3-difluorophenyl)-1-methyl-1H-pyrazole-4-carboxamide]: the IC50 is less than 3 µM in assay [1]; 10 to 25 µM in assay [2]; less than 3 µM in assay [3]; less than 3 µM in assay [4]; 10 to 25 µM in assay [5].
For `Cn1cc(C(=O)NC(Cc2ccccc2)C(=O)C(N)=O)c(-c2c(F)cccc2F)n1` (centres unmarked) [Compound 486, N-(4-amino-3,4-dioxo-1-phenylbutan-2-yl)-3-(2,6-difluorophenyl)-1-methyl-1H-pyrazole-4-carboxamide], the IC50 is less than 3 µM in assay [1]; 10 to 25 µM in assay [2]; less than 3 µM in assay [3]; less than 3 µM in assay [4]; less than 10 µM in assay [5].
As to `NC(=O)C(=O)C(Cc1ccccc1)NC(=O)c1cn(C(F)(F)F)nc1-c1ccccc1` (centres unmarked) [Compound 489, N-(4-amino-3,4-dioxo-1-phenylbutan-2-yl)-3-phenyl-1-(trifluoromethyl)-1H-pyrazole-4-carboxamide], the IC50 in assay [1] was less than 3 µM; in assay [2], 10 to 25 µM; in assay [3], less than 3 µM; in assay [4], less than 3 µM; in assay [5] it was 10 to 25 µM.
As to `Cc1noc(-c2ccccc2)c1C(=O)N[C@@H](Cc1ccc(O)cc1)C(=O)C(N)=O` [Compound 492, (S)—N-(4-amino-1-(4-hydroxyphenyl)-3,4-dioxobutan-2-yl)-3-methyl-5-phenylisoxazole-4-carboxamide], the IC50 in assay [1] was less than 3 µM; in assay [2] it was 10 to 25 µM; in assay [3], less than 3 µM; in assay [4], less than 3 µM; in assay [5], more than 25 µM.
Turning to `Cc1cc(C(=O)NC(Cc2ccccc2)C(=O)C(N)=O)n(-c2ccc(CNC(=O)c3ccc(F)cc3)cc2)n1` (centres unmarked) [Compound 496, N-(4-amino-3,4-dioxo-1-phenylbutan-2-yl)-1-(4-((4-fluorobenzamido)methyl)phenyl)-3-methyl-1H-pyrazole-5-carboxamide], the IC50 was less than 3 µM in assay [1]; 10 to 25 µM in assay [2]; less than 3 µM in assay [3]; less than 3 µM in assay [4]; more than 25 µM in assay [5].
As for `NC(=O)C(=O)C(Cc1ccccc1)NC(=O)c1cc(Br)nn1-c1ncccn1` (centres unmarked) [Compound 497, N-(4-amino-3,4-dioxo-1-phenylbutan-2-yl)-3-bromo-1-(pyrimidin-2-yl)-1H-pyrazole-5-carb oxamide], the IC50 in assay [1] was less than 3 µM; in assay [2] it was 10 to 25 µM; in assay [3] it was less than 3 µM; in assay [4], less than 3 µM; in assay [5], less than 10 µM.
As to `Cc1ccc(-c2nn(C)cc2C(=O)NC(Cc2ccccc2)C(=O)C(N)=O)o1` (centres unmarked) [Compound 498, N-(4-amino-3,4-dioxo-1-phenylbutan-2-yl)-1-methyl-3-(5-methylfuran-2-yl)-1H-pyrazole-4-carboxamide], the IC50 was less than 3 µM in assay [1]; more than 25 µM in assay [2]; less than 3 µM in assay [3]; less than 3 µM in assay [4]; 10 to 25 µM in assay [5].
For `Cc1cc(-c2nn(C)cc2C(=O)NC(Cc2ccccc2)C(=O)C(N)=O)c(C)s1` (centres unmarked) [Compound 499, N-(4-amino-3,4-dioxo-1-phenylbutan-2-yl)-3-(2,5-dimethylthiophen-3-yl)-1-methyl-1H-pyrazole-4-carboxamide], the IC50 in assay [1] was less than 3 µM; in assay [2], 10 to 25 µM; in assay [3], less than 3 µM; in assay [4] it was less than 3 µM; in assay [5], less than 10 µM.
In the case of `Cn1cc(C(=O)NC(Cc2ccccc2)C(=O)C(N)=O)c(-c2ccco2)n1` (centres unmarked) [Compound 500, N-(4-amino-3,4-dioxo-1-phenylbutan-2-yl)-3-(furan-2-yl)-1-methyl-1H-pyrazole-4-carboxamide], the IC50 in assay [1] is less than 3 µM; in assay [2] it was 10 to 25 µM; in assay [3], less than 3 µM; in assay [4], less than 3 µM; in assay [5], less than 10 µM.
`Cn1cc(C(=O)NC(Cc2ccccc2)C(=O)C(N)=O)c(-c2ccsc2Cl)n1` (centres unmarked) [Compound 501, N-(4-amino-3,4-dioxo-1-phenylbutan-2-yl)-3-(2-chlorothiophen-3-yl)-1-methyl-1H-pyrazole-4-carboxamide]: the IC50 in assay [1] is less than 3 µM; in assay [2], 10 to 25 µM; in assay [3], less than 3 µM; in assay [4], less than 3 µM; in assay [5], less than 10 µM.
On to `Cn1cc(C(=O)NC(Cc2ccccc2)C(=O)C(N)=O)c(-c2ccoc2)n1` (centres unmarked) [Compound 502, N-(4-amino-3,4-dioxo-1-phenylbutan-2-yl)-3-(furan-3-yl)-1-methyl-1H-pyrazole-4-carboxamide], for which the IC50 was less than 3 µM in assay [1]; 10 to 25 µM in assay [2]; less than 3 µM in assay [3]; less than 3 µM in assay [4]; less than 10 µM in assay [5].
Consider `Cc1csc(-c2nn(C)cc2C(=O)NC(Cc2ccccc2)C(=O)C(N)=O)c1` (centres unmarked) [Compound 504, N-(4-amino-3,4-dioxo-1-phenylbutan-2-yl)-1-methyl-3-(4-methylthiophen-2-yl)-1H-pyrazole-4-carboxamide], for which the IC50 is less than 3 µM in assay [1]; more than 25 µM in assay [2]; less than 3 µM in assay [3]; less than 3 µM in assay [4]; more than 25 µM in assay [5].
